Patent US20080221116A1, “ISOXAZOLINE ALPHA 1a/1d ADRENORECEPTOR ANTAGONISTS” (priority 2006, published 2008)
Several values for one entry are separate records, joined by “and”; a condition that tells them apart may be missing. Identical values can stand only once. Like-named read-outs stand apart in the source and are kept apart here.

Columns and labels:
[1] = target: T1, α1b-AR (Homo sapiens, UniProt P35368); assay: α1-Adrenergic Receptor Binding Assay, 125I-HEAT radio-ligand binding, transfected COS-7 cell membranes, α1b subtype; conditions: COS-7 membranes
T1 construct: expressed in transfected cells; host or cells: COS-7 cells (African Green monkey kidney), membranes
T1 sequence (P35368 1-520): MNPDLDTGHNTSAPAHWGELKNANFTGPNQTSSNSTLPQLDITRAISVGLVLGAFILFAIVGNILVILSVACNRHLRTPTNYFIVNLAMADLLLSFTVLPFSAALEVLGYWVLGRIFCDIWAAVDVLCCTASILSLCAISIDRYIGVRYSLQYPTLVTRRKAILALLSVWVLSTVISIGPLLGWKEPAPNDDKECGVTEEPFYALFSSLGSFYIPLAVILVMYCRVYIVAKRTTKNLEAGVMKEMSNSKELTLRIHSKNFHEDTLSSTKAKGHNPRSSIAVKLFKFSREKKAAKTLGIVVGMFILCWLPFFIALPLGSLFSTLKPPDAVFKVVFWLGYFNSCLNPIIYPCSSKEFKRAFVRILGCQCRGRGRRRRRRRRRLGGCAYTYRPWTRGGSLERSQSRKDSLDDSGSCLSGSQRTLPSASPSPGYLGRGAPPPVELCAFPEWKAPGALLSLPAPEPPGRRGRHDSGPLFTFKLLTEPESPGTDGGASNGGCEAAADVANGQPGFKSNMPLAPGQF
Summary of the method: (§1)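 Competition binding of ¹²⁵I-HEAT ([…]) on membranes from COS-7 cells transfected with each human α1-AR subtype; membrane 0.5 ng/μL (α1a, α1b) or 13 ng/μL (α1d). Compound […] in half-log steps, triplicates, 1 hr at rt. Filtration and scintillation counting; Ki (nM) derived.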

[2] = target: T2, α1a-AR (Homo sapiens, UniProt P35348); assay: α1-Adrenergic Receptor Binding Assay, 125I-HEAT radio-ligand binding, transfected COS-7 cell membranes, α1a subtype; conditions: COS-7 membranes
T2 construct: expressed in transfected cells; host or cells: COS-7 cells (African Green monkey kidney), membranes
T2 sequence (P35348 1-466): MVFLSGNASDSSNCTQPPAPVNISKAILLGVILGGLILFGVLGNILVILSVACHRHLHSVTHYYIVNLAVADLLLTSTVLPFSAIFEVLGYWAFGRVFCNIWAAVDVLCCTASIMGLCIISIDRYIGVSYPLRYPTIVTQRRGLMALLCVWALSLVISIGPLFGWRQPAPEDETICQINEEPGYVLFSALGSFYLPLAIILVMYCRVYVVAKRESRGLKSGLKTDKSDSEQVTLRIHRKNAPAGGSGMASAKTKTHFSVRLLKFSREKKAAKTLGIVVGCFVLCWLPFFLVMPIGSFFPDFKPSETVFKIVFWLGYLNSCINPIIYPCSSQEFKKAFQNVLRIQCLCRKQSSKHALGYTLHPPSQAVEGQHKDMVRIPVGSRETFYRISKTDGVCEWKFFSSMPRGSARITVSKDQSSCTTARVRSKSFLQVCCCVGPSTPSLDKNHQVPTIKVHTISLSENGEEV
Summary of the method: as §1

[3] = target: T3, α1d-AR (Homo sapiens, UniProt P25100); assay: α1-Adrenergic Receptor Binding Assay, 125I-HEAT radio-ligand binding, transfected COS-7 cell membranes, α1d subtype; conditions: COS-7 membranes
T3 construct: expressed in transfected cells; host or cells: COS-7 cells (African Green monkey kidney), membranes
T3 sequence (P25100 1-572): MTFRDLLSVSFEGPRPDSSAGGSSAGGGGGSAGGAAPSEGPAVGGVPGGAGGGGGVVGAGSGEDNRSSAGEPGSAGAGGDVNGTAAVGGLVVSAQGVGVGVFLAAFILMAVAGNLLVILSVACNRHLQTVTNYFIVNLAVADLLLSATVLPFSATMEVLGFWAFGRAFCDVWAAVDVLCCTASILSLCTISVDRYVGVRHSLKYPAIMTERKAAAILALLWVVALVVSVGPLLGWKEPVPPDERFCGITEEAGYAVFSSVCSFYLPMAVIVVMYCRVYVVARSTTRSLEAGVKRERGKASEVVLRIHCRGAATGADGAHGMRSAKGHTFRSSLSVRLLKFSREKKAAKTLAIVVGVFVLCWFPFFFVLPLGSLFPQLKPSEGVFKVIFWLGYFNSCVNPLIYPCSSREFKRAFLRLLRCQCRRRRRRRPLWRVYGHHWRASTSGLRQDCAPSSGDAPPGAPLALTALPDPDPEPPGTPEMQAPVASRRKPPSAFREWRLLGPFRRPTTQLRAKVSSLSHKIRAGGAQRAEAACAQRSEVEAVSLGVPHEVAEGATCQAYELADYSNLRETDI
Summary of the method: as §1

[4] = as described in the article; cited from earlier work
[5] = target: T4, 5-HT1A site (Homo sapiens, UniProt P08908); conditions: as described in the article; cited from earlier work
T4 sequence (P08908 1-422): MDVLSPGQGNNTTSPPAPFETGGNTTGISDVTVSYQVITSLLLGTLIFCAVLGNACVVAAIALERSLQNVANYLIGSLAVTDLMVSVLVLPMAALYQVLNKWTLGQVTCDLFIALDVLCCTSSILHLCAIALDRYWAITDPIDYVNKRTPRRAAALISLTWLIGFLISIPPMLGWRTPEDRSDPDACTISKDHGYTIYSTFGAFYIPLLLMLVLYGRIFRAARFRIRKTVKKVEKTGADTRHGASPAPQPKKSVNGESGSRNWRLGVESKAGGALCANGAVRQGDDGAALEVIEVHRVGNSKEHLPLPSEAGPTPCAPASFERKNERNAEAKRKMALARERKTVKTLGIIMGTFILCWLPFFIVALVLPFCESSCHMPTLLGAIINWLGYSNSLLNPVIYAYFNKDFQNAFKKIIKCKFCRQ

[6] = target: D2 (Homo sapiens, UniProt P14416); conditions: as described in the article; cited from earlier work
D2, sequence (P14416 whole entry): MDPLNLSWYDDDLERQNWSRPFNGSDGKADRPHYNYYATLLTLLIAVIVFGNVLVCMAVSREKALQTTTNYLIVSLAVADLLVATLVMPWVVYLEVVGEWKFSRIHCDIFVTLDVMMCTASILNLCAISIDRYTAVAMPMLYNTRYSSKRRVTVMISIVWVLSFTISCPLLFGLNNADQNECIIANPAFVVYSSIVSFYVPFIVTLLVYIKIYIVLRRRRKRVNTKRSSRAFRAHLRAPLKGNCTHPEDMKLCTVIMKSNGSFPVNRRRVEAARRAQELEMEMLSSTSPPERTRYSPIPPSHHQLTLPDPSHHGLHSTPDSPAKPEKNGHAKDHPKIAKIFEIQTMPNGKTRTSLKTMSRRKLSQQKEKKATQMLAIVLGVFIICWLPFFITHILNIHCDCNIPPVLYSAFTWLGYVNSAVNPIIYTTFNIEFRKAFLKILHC

[7] = average value, read-out: Alpha 1 Ki α1b (1) Average Value
[8] = individual values, read-out: Alpha 1 Ki α1b (2) Individual Values
[9] = average value, read-out: Alpha 1 Ki α1a (1) Average Value
[10] = individual values, read-out: Alpha 1 Ki α1a (2) Individual Values
[11] = average value, read-out: Alpha 1 Ki α1d (1) Average Value
[12] = individual values, read-out: Alpha 1 Ki α1d (2) Individual Values

Compound	Ki [1, 7]	Ki [1, 8]	Ki [2, 9]	Ki [2, 10]	Ki [3, 11]	Ki [3, 12]	melting point	Conditioned Avoidance Response (CAR) activity [4]	binding affinity for the 5-HT1A site [5]	D2 binding [6]
CC(C)Oc1ccccc1N1CCN(CC2CC(C(=O)N3CCOCC3)=NO2)CC1 (stereo not shown) [Compound 28, {5-[4-(2-isopropoxy-phenyl)-piperazin-1-ylmethyl]-4,5-dihydro-isoxazol-3-yl}-morpholin-4-yl-methanone]	0.691 µM	0.691 µM	0.003 µM	0.003 µM	0.0272 µM	0.0272 µM	–	–	–	–
CC(C)Oc1ccccc1N1CCN(CC2CC(C(=O)N3CCC(S(=O)(=O)c4ccccc4)CC3)=NO2)CC1 (stereo not shown) [Compound 30, (4-benzenesulfonyl-piperidin-1-yl)-{5-[4-(2-isopropoxy-phenyl)-piperazin-1-ylmethyl]-4,5-dihydro-isoxazol-3-yl}-methanone]	0.173 µM	0.164 µM and 0.183 µM	0.0034 µM	0.0034 µM	0.0045 µM	0.0058 µM and 0.0032 µM	74 to 76 °C	–	–	–
CC(C)Oc1ccccc1N1CCN(CC2CC(C(=O)N3CCC(c4ccccc4)(c4ccccc4)CC3)=NO2)CC1 (stereo not shown) [Compound 31, (4,4-diphenyl-piperidin-1-yl)-{5-[4-(2-isopropoxy-phenyl)-piperazin-1-ylmethyl]-4,5-dihydro-isoxazol-3-yl}-methanone]	0.248 µM	0.248 µM	0.025 µM	0.025 µM	0.0096 µM	0.0096 µM	61 to 63 °C	–	–	–
CC(C)Oc1ccccc1N1CCN(CC2CC(C(=O)N3CCC(Oc4ccccn4)CC3)=NO2)CC1 (stereo not shown) [Compound 32, {5-[4-(2-isopropoxy-phenyl)-piperazin-1-ylmethyl]-4,5-dihydro-isoxazol-3-yl}-[4-(pyridin-2-yloxy)-piperidin-1-yl]-methanone]	0.264 µM	0.264 µM	0.0417 µM	0.0417 µM	0.0446 µM	0.0446 µM	–	–	–	–
CC(C)Oc1ccccc1N1CCN(CC2CC(C(=O)N3CCC(Oc4ccc(Cl)cc4)CC3)=NO2)CC1 (stereo not shown) [Compound 34, [4-(4-chloro-phenoxy)-piperidin-1-yl]-{5-[4-(2-isopropoxy-phenyl)-piperazin-1-ylmethyl]-4,5-dihydro-isoxazol-3-yl}-methanone]	0.255 µM	0.255 µM	0.04 µM	0.04 µM	0.027 µM	0.027 µM	–	–	–	–
CC(C)Oc1ccccc1N1CCN(CC2CC(C(=O)N3CCCC3)=NO2)CC1 (stereo not shown) [Compound 35, {5-[4-(2-isopropoxy-phenyl)-piperazin-1-ylmethyl]-4,5-dihydro-isoxazol-3-yl}-pyrrolidin-1-yl-methanone]	0.212 µM	0.183 µM and 0.242 µM	0.00365 µM	0.0016 µM and 0.0057 µM	0.009 µM	0.011 µM and 0.007 µM	–	–	–	–
CC(C)Oc1ccccc1N1CCN(CC2CC(CO)=NO2)CC1 (stereo not shown) [compound 49, 4,5-dihydro-5-[[4-[2-(1-methylethoxy)phenyl]-1-piperazinyl]methyl]-3-isoxazolemethanol]	–	–	–	–	–	–	–	strong	lack	lack
CC(C)Oc1ccccc1N1CCN(CC2CC(CN3CCCCC3=O)=NO2)CC1.O.[O-][Cl+3]([O-])([O-])O (stereo not shown) [compound 50, 1-[[4,5-dihydro-5-[[4-[2-(1-methylethoxy)phenyl]-1-piperazinyl]methyl]-3-isoxazolyl]methyl]-piperidin-2-one perchlorate hydrate]	–	–	–	–	–	–	–	not so active	moderately high	–

Now from value to molecule, other results behind:

Ki [1, 7]	Ki [1, 8]	Ki [2, 9]	Ki [2, 10]	Ki [3, 11]	Ki [3, 12]	melting point	Compound	Conditioned Avoidance Response (CAR) activity [4]	binding affinity for the 5-HT1A site [5]	D2 binding [6]
0.071 µM	0.071 µM	0.0035 µM	0.0035 µM	0.00012 µM	0.00012 µM	–	Cc1ccc2c(c1)CCN2C(=O)C1=NOC(CN2CCN(c3ccccc3OC(C)C)CC2)C1 (stereo not shown) [Compound 25, {5-[4-(2-isopropoxy-phenyl)-piperazin-1-ylmethyl]-4,5-dihydro-isoxazol-3-yl}-(5-methyl-2,3-dihydro-indol-1-yl)-methanone]	–	–	–
0.258 µM	0.258 µM	0.0067 µM	0.0067 µM	0.011 µM	0.011 µM	–	CC(C)Oc1ccccc1N1CCN(CC2CC(C(=O)N3CCCc4ccccc43)=NO2)CC1 (stereo not shown) [Compound 26, (3,4-dihydro-2H-quinolin-1-yl)-{5-[4-(2-isopropoxy-phenyl)-piperazin-1-ylmethyl]-4,5-dihydro-isoxazol-3-yl}-methanone]	–	–	–
0.219 µM	0.219 µM	0.0116 µM	0.0116 µM	0.0065 µM	0.0065 µM	–	CC(C)Oc1ccccc1N1CCN(CC2CC(C(=O)N3CCC(Cc4ccccc4)CC3)=NO2)CC1 (stereo not shown) [Compound 27, (4-benzyl-piperidin-1-yl)-{5-[4-(2-isopropoxy-phenyl)-piperazin-1-ylmethyl]-4,5-dihydro-isoxazol-3-yl}-methanone]	–	–	–
0.672 µM	1.01 µM and 0.333 µM	0.0068 µM	0.0022 µM and 0.0114 µM	0.0082 µM	0.0056 µM and 0.0108 µM	–	CC(C)Oc1ccccc1N1CCN(CC2CC(C(=O)N3CCC(Oc4ccccc4)CC3)=NO2)CC1 (stereo not shown) [Compound 29, {5-[4-(2-isopropoxy-phenyl)-piperazin-1-ylmethyl]-4,5-dihydro-isoxazol-3-yl}-(4-phenoxy-piperidin-1-yl)-methanone]	–	–	–
0.254 µM	0.254 µM	0.019 µM	0.019 µM	0.02 µM	0.02 µM	–	COc1ccccc1C1CCN(C(=O)C2=NOC(CN3CCN(c4ccccc4OC(C)C)CC3)C2)CC1 (stereo not shown) [Compound 33, {5-[4-(2-isopropoxy-phenyl)-piperazin-1-ylmethyl]-4,5-dihydro-isoxazol-3-yl}-[4-(2-methoxy-phenyl)-piperidin-1-yl]-methanone]	–	–	–
